# Test results reported in patent US20040266882A1 (priority 2001, published 2004).
# Like-named read-outs stand apart in the source and are kept apart here.
# Key:
# [1] = tested on: PANC-1, C6, MCF-7, U2OS and HT1080; conditions: 48 hours; for reduction in cell survival, drug alone: non-resistant cell lines, 0.1 μg/ml DOX or 0.3 μg/ml VIN alone
# Experimental: Studies similar in general to those outlined in the previous section, were conducted with five cell lines selected for this task (PANC-1, C6, MCF-7, U2OS and HT1080), increasing the length of the experiment to 48 hours. The studies were done with DOX and with Vinblastine (VIN or VLB).
# [2] = tested on: B16F10 cells; conditions: for lung metastatic burden (lung weight increase, number of lung metastasis), single agent: fluoxetine 0.04 mg/kg daily orally alone, or Doxorubicin 10 mg/kg i.v. alone
# [3] = tested on: C6 cells; conditions: cells loaded with 0.1 μg/ml DOX alone
# Experimental: Cells were grown in monolayers as described above. […] Control cells received media alone.
# [4] = tested on: C-26 cells; assay: Solid tumor model, C-26 cells injected into footpad; assay type: in vivo, mice; conditions: for solid tumor volume with time, single agent: fluoxetine 0.04 mg/kg daily orally alone, or MMC or DOX 5 mg/kg i.v. alone
# Experimental: In the solid tumor model, C-26 cells were injected into the animal's right-hind footpad.
# In the solid tumor model, Mitomycin C (MMC) and Doxorubicin (DOX), were tested separately, each at a dose of 5 mg/kg body.
# [5] = tested on: concavalin A-stimulated normal lymphocytes; conditions: doses equivalent to 20-40 mg/M^2; cited from earlier work
# [6] = daily dose; cited from earlier work
# [7] = tested on: fibrosarcoma cells; conditions: doses equivalent to 20-40 mg/M^2; cited from earlier work
# [8] = tested on: C6 cells; set-up: effect on cell survival: dose or concentration left out as unconfirmed; conditions: 24 hours; for enhancement in cell death by the combination treatment: vs drug alone
# [9] = tested on: PANC-1 cells; set-up: effect on cell survival: dose or concentration left out as unconfirmed; conditions: 24 hours; for enhancement in cell death by the combination treatment: vs drug alone
# [10] = […] μM fluoxetine + 0.1 μg/ml Doxorubicin
# [11] = […] μM fluoxetine + 30 μg/ml Mitomycin C
compound,measurement,setting,value
COc1cccc2c1C(=O)c1c(O)c3c(c(O)c1C2=O)C[C@@](O)(C(=O)CO)C[C@@H]3O[C@H]1C[C@H](N)[C@H](O)[C@H](C)O1 [Doxorubicin],"reduction in cell survival, drug alone",[1],50%
same,"lung metastatic burden (lung weight increase, number of lung metastasis), single agent",[2],only a mild reduction
same,depletion of intracellular DOX at 2 hours,[3],100%
same,"solid tumor volume with time, single agent",[4],increases fast and exponentially
"CNCCC(Oc1ccc(C(F)(F)F)cc1)c1ccccc1 (stereo not shown) [fluoxetine, N-methyl 3-(p-trifluoromethylphenoxy)-3-phenylpropylamine]",effect on proliferation of concavalin A-stimulated normal lymphocytes,[5],inhibits the proliferation
same,"known, acceptable safety limit",[6],80 mg/M^2
same,effect on proliferation of fibrosarcoma cells,[7],promotes the proliferation
same,"toxicity to the cells, fluoxetine alone","[1]; fluoxetine alone, 0-15 μM",not toxic
same,enhancement in cell death by the combination treatment,[8]; [10],3-4 fold
same,enhancement in cell death by the combination treatment,[8]; [11],3-4 fold
same,effect on cell survival,[8]; […] μM fluoxetine alone,does not affect cell survival at all
same,"survival, single agent","[2]; CS alone or CT alone, 75-days experiment",died rather early
same,"lung metastatic burden, combination treatment",[2]; fluoxetine 0.04 mg/kg daily orally + Doxorubicin 10 mg/kg i.v.,substantial reduction
same,"lung metastatic burden (lung weight increase, number of lung metastasis), single agent",[2],highest metastatic burden
same,"survival, combination treatment","[2]; fluoxetine + Doxorubicin, 75-days experiment",long survivors
same,enhancement in cell death by the combination treatment,[9]; [10],3-4 fold
same,enhancement in cell death by the combination treatment,[9]; [11],3-4 fold
same,effect on cell survival,[9]; […] μM fluoxetine alone,does not affect cell survival at all
same,prolongation of survival,"[4]; DOX+CS vs saline, CS alone and DOX alone",3 fold
same,prolongation of survival,"[4]; MMC+CS vs saline, CS alone and MMC alone",2 fold
same,"solid tumor size and growth, combination therapy",[4]; fluoxetine 0.04 mg/kg daily orally + DOX 5 mg/kg i.v.,tumors are substantially smaller
same,"solid tumor size and growth, combination therapy",[4]; fluoxetine 0.04 mg/kg daily orally + MMC 5 mg/kg i.v.,tumors are substantially smaller
same,"solid tumor volume with time, single agent",[4],increases fast and exponentially
CC[C@]1(O)C[C@@H]2CN(CCc3c([nH]c4ccccc34)[C@@](C(=O)OC)(c3cc4c(cc3OC)N(C)[C@H]3[C@@](O)(C(=O)OC)[C@H](OC(C)=O)[C@]5(CC)C=CCN6CC[C@]43[C@@H]65)C2)C1 [Vinblastine],"reduction in cell survival, drug alone",[1],50%
CO[C@@]12[C@H](COC(N)=O)C3=C(C(=O)C(C)=C(N)C3=O)N1C[C@@H]1N[C@@H]12 [Mitomycin C],"solid tumor volume with time, single agent",[4],increases fast and exponentially
